From article PMC10004598, “Identification and Characterization of a Novel Cathelicidin from Hydrophis cyanocinctus with Antimicrobial and Anti-Inflammatory Activity” (Molecules, 2023)
In brackets after ≈: the same amount, converted by molar mass. Read-outs that look alike come from different tables or passages of the source. No end group written: not given here.

Key:
[1] = test system: Escherichia coli [ATCC 25922]; test: microbe, parasite or virus in culture
Experimental: (§1) The microorganisms (Staphylococcus aureus [ATCC 25923], Escherichia coli [ATCC 25922], and Propionibacterium acnes [ATCC 6919]) were obtained from Fuxiang Biotechnology (Shanghai, China). The five strains of K. pneumoniae clinical isolates (44, 48, 49, 50, and 51) were obtained from the Department of Critical Care Medicine, Shanghai Tenth People’s Hospital.
(§2) The antimicrobial assay was performed by broth microdilution method, following the guidelines of the Clinical and Laboratory Standards Institute. Strains (mentioned in Section 4.3) were inoculated into Mueller-Hinton broth (MH), oscillated (37 °C, 220 rpm, 12 h) to the logarithmic growth stage, and then diluted to 10^6 CFU/mL. […] Then, the absorbance was measured at 600 nm in a microplate reader (Epoch Biotek, Winooski, VT, USA). […] The minimum inhibitory concentration (MIC) was defined as the lowest concentration of an antimicrobial where there was no visible growth. After measuring the MIC, a 50 μL sample was taken from the growth well without visible bacteria, serially diluted with phosphate-buffered saline (PBS, pH = 7.0), then spread on an MH agar solid medium and incubated at 37 °C for 12 h. The number of colonies was calculated, and the minimum drug concentrations that killed 99.9% of bacteria were considered the minimum bactericidal concentration (MBC) of the peptide.

[2] = test system: K. pneumoniae 48 (clinical isolate); test: microbe, parasite or virus in culture
Experimental: as §1, §2

[3] = test system: K. pneumoniae 49 (clinical isolate); test: microbe, parasite or virus in culture
Experimental: as §1, §2

[4] = test system: K. pneumoniae 50 (clinical isolate); test: microbe, parasite or virus in culture
Experimental: as §1, §2

[5] = test system: K. pneumoniae 51 (clinical isolate); test: microbe, parasite or virus in culture
Experimental: as §1, §2

[6] = test system: Klebsiella pneumoniae 44 (clinical isolate); test: microbe, parasite or virus in culture
Experimental: as §1, §2

[7] = test system: Propionibacterium acnes [ATCC 6919]; test: microbe, parasite or virus in culture
Experimental: as §1, §2

E. coli [8] = assay type: cell-based, Escherichia coli; conditions: compound at MBC, 37 °C
Experimental: Time-killing kinetics were determined with the method as previously described. […] The mixture was sampled 50 μL at 5, 15, 30, 60, 120, 240, and 480 min. Dilute the samples with sterile MH broth to a 10-fold gradient. Bacterial suspensions were plated at MH agar plates. After incubation at 37 °C for 12 h, the number of colonies was calculated.

[9] = test system: Staphylococcus aureus [ATCC 25923]; conditions: broth microdilution, MH broth, 37 °C, 16–20 h
Experimental: as §1, §2

[10] = test system: S. aureus biofilm formation; test: Biofilm inhibition assay (crystal violet); assay type: cell-based, Staphylococcus aureus; conditions: 2 × MIC, 37 °C, 24 h, absorbance 600 nm, three independent experiments in quintuplicate
Experimental: Sterile PBS was used to wash 3 times and methanol was used to fix it for 0.5 h. After drying, 1% crystal violet solution was used to stain for 0.5 h, washed 3 times with sterilized deionized water, and dissolved with 100 μL anhydrous ethanol. The absorbance was measured at 600 nm.

E. coli [11] = conditions: mean of three independent experiments in triplicate
Experimental: E. coli was inoculated into MH broth and oscillated (37 °C, 220 rpm, 12 h) to the logarithmic growth stage. Then diluted to 10^6 CFU/mL in MH broth with NaCl (0, 50, 100, 150, and 200 mM) or CaCl2 (1, 2, and 4 mM). […] The absorption value was detected at 600 nm.

E. coli [12] = conditions: mean of three independent experiments in triplicate; remark: listed apart in the source
Experimental: E.coli was inoculated into MH broth and oscillated (37 °C, 220 rpm, 12 h) to the logarithmic growth stage. Then diluted to 10^6 CFU/mL. […] Then, the absorbance was measured at 600 nm.

E. coli [13] = conditions: mean of three independent experiments in triplicate; remark: listed apart in the source
Experimental: E. coli was inoculated into MH broth and oscillated (37 °C, 220 rpm, 12 h) to the logarithmic growth stage. Then diluted to 10^6 CFU/mL. […] The MICs of these peptides were then measured.

[14] = test system: HaCaT (human immortal keratinocyte cell line); test: Cytotoxicity assay (CCK-8); assay type: cell-based; conditions: 32 μg/mL, 24 h, mean of three independent experiments in triplicate
Experimental: (§3) RAW264.7 (murine macrophage cell line), L929 (mouse fibroblast cell line), and HaCaT (human immortal keratinocyte cell line) were purchased from the Shanghai Institute of Biochemistry and Cell Science, Chinese Academy of Sciences.
(§4) The cells were cultured using a DMEM medium containing 10%FBS and 1% penicillin-streptomycin solution. In 96-well plates, 100 µL of cells (2 × 10^4 cells/well) in DMEM were seeded and cultured overnight in an incubator at 5% CO2 and 37 °C. […] Subsequently, the medium was replaced by 100 μL DMEM containing 10% Cell Counting Kit-8 reagent, and incubated for 0.5 h at 37 °C. The absorbance was measured at […].

[15] = test system: L929 (mouse fibroblast cell line); test: Cytotoxicity assay (CCK-8); assay type: cell-based; conditions: L929, 32 μg/mL, 24 h, mean of three independent experiments in triplicate
Experimental: as §3, §4

human erythrocytes = human erythrocytes 2% suspension, 250 μg/mL, 37 °C, 0.5 h, absorbance 540 nm, 1% Triton X-100 = complete hemolysis; mean of three independent experiments in triplicate
Experimental: Centrifuge at 25 °C at 1500 rpm for 5 min. Transfer 180 μL of supernatant to a 96-well plate and measure absorbance value at 540 nm. Normal saline was used as a negative control and 1% Triton X-100 solution as a positive control (complete hemolysis).

E. coli [16] = conditions: human serum:peptide solution (10 mg/mL) 4:1 v:v, 37 °C, read-out MIC, mean of three independent experiments in triplicate
Experimental: The same amount of solution was taken at each time point and gradient dilution was carried out with normal saline.

CC1(C)S[C@@H]2[C@H](NC(=O)[C@H](N)c3ccccc3)C(=O)N2[C@H]1C(=O)O [Ampicillin, reference compound]
MBC ([1]; ATCC25922, 12 h): 16 µg/mL (≈ 45.8 µM)
MIC ([2]; Klebsiella pneumoniae): > 128 µg/mL
MIC ([3]; Klebsiella pneumoniae): > 128 µg/mL
MIC ([4]; Klebsiella pneumoniae): > 128 µg/mL
MIC ([5]; Klebsiella pneumoniae): > 128 µg/mL
MIC ([6]; Klebsiella pneumoniae): > 128 µg/mL
MIC ([7]; Cutibacterium acnes, ATCC6919): 0.25 µg/mL (≈ 0.715 µM)
time at which bacteriostatic effect starts (E. coli [8]): ≥ 1 h
killing of E. coli within 8 h (E. coli [8]; 8 h): failed to completely kill
killing rate (E. coli [8]; after 4 h): about 47%

KRFKKFFKKLRKSVKKRVKKFFKKPKVIGVSIPF [Hydrostatin-AMP2]
MIC ([1]; broth microdilution (CLSI), MH broth, 10^6 CFU/mL, 37 °C, 16–20 h, absorbance 600 nm): 16 µg/mL
MBC ([1]; minimum concentration killing 99.9% of bacteria, plating on MH agar, 37 °C, 12 h): 32 µg/mL
MIC ([2]; K. pneumoniae 48, clinical isolate, broth microdilution, MH broth, 37 °C, 16–20 h): 16 µg/mL
MIC ([3]; K. pneumoniae 49, clinical isolate, broth microdilution, MH broth, 37 °C, 16–20 h): 32 µg/mL
MIC ([4]; K. pneumoniae 50, clinical isolate, broth microdilution, MH broth, 37 °C, 16–20 h): 32 µg/mL
MIC ([5]; K. pneumoniae 51, clinical isolate, broth microdilution, MH broth, 37 °C, 16–20 h): 32 µg/mL
MIC ([6]; Klebsiella pneumoniae 44, clinical isolate, broth microdilution, MH broth, 37 °C, 16–20 h): 32 µg/mL
MIC ([7]; Propionibacterium acnes, broth microdilution, MH broth, 37 °C, 16–20 h): 32 µg/mL
MIC [9]: 32 µg/mL
inhibition of biofilm formation [10]: 71.02%
MIC (E. coli [11]; Control (NaCl 0 mM, untreated peptide)): 16 µg/mL
MIC (E. coli [11]; MH broth with CaCl2 1 mM): 64 µg/mL
MIC (E. coli [11]; MH broth with CaCl2 2 mM): 64 µg/mL
MIC (E. coli [11]; MH broth with CaCl2 4 mM): 128 µg/mL
MIC (E. coli [11]; MH broth with NaCl 50 mM): 32 µg/mL
MIC (E. coli [11]; MH broth with NaCl 100 mM): 32 µg/mL
MIC (E. coli [11]; MH broth with NaCl 150 mM): 32 µg/mL
MIC (E. coli [11]; MH broth with NaCl 200 mM): 64 µg/mL
MIC after incubation at temperature (E. coli [12]; peptide incubated at 4 °C for 1 h): 32 µg/mL
MIC after incubation at temperature (E. coli [12]; peptide incubated at 37 °C for 1 h): 32 µg/mL
MIC after incubation at temperature (E. coli [12]; peptide incubated at 80 °C for 1 h): 32 µg/mL
MIC after incubation at temperature (E. coli [12]; peptide incubated at 100 °C for 1 h): 64 µg/mL
MIC after incubation at pH 2 (E. coli [13]; peptide incubated in PBS pH 2 for 4 h at 37 °C): 64 μg/mL
MIC after incubation at pH 12 (E. coli [13]; peptide incubated in PBS pH 12 for 4 h at 37 °C): 64 μg/mL
Cell Death [14]: 5.89%
Cell Death [15]: 8.08%
Hemolysis (human erythrocytes): 4.6%
MIC after incubation with human serum (E. coli [16]; 1 h): 32 µg/mL
MIC after incubation with human serum (E. coli [16]; 2 h): 32 µg/mL
MIC after incubation with human serum (E. coli [16]; 3 h): 32 µg/mL
